Data published in patent US8063071B2 (GlaxoSmithKline, LLC, priority 2007, dated 2011).
Structures can show the parent of a compound that is named as a salt.

Biological target: T1, Recombinant human IKKβ (residues 1-737) (Homo sapiens, UniProt O14920)
T1 construct: Recombinant human IKKβ (residues 1-737); GST (C); made in house
T1 sequence (O14920 1-737): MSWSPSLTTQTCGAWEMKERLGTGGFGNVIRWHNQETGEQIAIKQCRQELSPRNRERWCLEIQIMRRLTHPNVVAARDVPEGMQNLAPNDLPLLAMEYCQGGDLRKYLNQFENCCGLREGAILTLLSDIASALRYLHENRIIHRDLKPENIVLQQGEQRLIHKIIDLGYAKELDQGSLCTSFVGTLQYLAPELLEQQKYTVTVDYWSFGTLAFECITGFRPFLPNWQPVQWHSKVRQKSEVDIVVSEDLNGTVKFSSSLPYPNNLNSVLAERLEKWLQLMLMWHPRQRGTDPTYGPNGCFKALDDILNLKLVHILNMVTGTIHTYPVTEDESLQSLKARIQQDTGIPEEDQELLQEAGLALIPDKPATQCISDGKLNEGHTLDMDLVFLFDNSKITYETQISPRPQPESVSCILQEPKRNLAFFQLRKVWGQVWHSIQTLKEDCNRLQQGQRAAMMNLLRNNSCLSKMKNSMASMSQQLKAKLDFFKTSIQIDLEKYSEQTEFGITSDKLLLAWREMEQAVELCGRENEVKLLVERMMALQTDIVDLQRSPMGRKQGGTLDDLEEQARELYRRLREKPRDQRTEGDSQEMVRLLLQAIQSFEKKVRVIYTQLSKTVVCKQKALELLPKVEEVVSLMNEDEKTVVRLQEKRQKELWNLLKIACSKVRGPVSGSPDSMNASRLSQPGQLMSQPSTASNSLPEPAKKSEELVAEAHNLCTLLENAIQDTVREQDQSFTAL
Assay: IKK2 assay (TR-FRET)
Assay type: biochemical
Conditions: ATP 1 μM final, read-out: pIC50 against IKK2 (converted)
Protocol: Recombinant human IKKβ (residues 1-737) was expressed in baculovirus as a C-terminal GST-tagged fusion protein, and its activity was assessed using a time-resolved fluorescence resonance energy transfer (TR-FRET) assay. Briefly, IKK2 (0.5 nM-5 nM final) diluted in assay buffer (50 mM HEPES, 10 mM MgCl2, 1 mM CHAPS pH 7.4 with 1 mM DTT and 0.01% w/v BSA) was added to wells containing various concentrations of compound or DMSO vehicle (1.7% final). The reaction was initiated by the addition of GST-IB substrate (25 nM final)/ATP (1 μM final), in a total volume of 6 μl. The reaction was incubated for 15 minutes at room temperature, then terminated by the addition of 3 μl of detection reagent in buffer containing 50 mM EDTA (100 mM HEPES pH 7.4, 150 mM NaCl, 50 mM EDTA and 0.01% w/v BSA) containing antiphosphoserine-IB-32/36 monoclonal antibody 12C2 (Cell Signalling Technology, Beverly Mass., USA) labelled with W-1024 europium chelate (Wallac OY, Turku, Finland), and an APC-labelled anti-GST antibody (Prozyme, San Leandro, Calif., USA) was added and the reaction was further incubated for 60 minutes at room temperature. The degree of phosphorylation of GST-IB was measured using a BMG Rubystar plate reader (BMG Labtech, Aylesbury, UK) as a ratio of specific 665 nm energy transfer signal to reference europium 620 nm signal.

Compound | IC50
CCS(=O)(=O)N1CCC(c2c[nH]c3c(C(N)=O)cc(-c4cc(C#N)cc(CNCC(F)(F)F)c4)cc23)CC1 [Example 41, 5-(3-cyano-5-{[(2,2,2-trifluoroethyl)amino]methyl}phenyl)-3-[1-(ethylsulfonyl)-4-piperidinyl]-1H-indole-7-carboxamide trifluoroacetate] | ≤ 10 µM
CCS(=O)(=O)N1CCC(c2c[nH]c3c(C(N)=O)cc(-c4cc(CN(C)C)c(OC)c(OC)c4)cc23)CC1 [Example 51, 5-[3-[(dimethylamino)methyl]-4,5-bis(methyloxy)phenyl]-3-[1-(ethylsulfonyl)-4-piperidinyl]-1H-indole-7-carboxamide] | ≤ 10 µM
CCS(=O)(=O)N1CCC(c2c[nH]c3c(C(N)=O)cc(-c4cc(CNC(C)C)c(OC)c(OC)c4)cc23)CC1 [Example 53, 3-[1-(ethylsulfonyl)-4-piperidinyl]-5-[3-{[(1-methylethyl)amino]methyl}-4,5-bis(methyloxy)phenyl]-1H-indole-7-carboxamide] | ≤ 10 µM
CCS(=O)(=O)N1CCC(c2c[nH]c3c(C(N)=O)cc(-c4cc(CNC)c(OC)c(OC)c4)cc23)CC1 [Example 54] | ≤ 10 µM
CCS(=O)(=O)N1CCC(c2c[nH]c3c(C(N)=O)cc(-c4cc(CNCC(C)(C)C)c(OC)c(OC)c4)cc23)CC1 [Example 55, 5-[3-{[(2,2-dimethylpropyl)amino]methyl}-4,5-bis(methyloxy)phenyl]-3-[1-(ethylsulfonyl)-4-piperidinyl]-1H-indole-7-carboxamide] | ≤ 10 µM
CCS(=O)(=O)N1CCC(c2c[nH]c3c(C(N)=O)cc(-c4cc(CN(C)CCO)c(OC)c(OC)c4)cc23)CC1 [Example 56, 3-[1-(ethylsulfonyl)-4-piperidinyl]-5-[3-{[(2-hydroxyethyl)(methyl)amino]methyl}-4,5-bis(methyloxy)phenyl]-1H-indole-7-carboxamide] | ≤ 10 µM
CCS(=O)(=O)N1CCC(c2c[nH]c3c(C(N)=O)cc(-c4cc(CN5CCCC5)c(OC)c(OC)c4)cc23)CC1 [Example 57, 5-[3,4-bis(methyloxy)-5-(1-pyrrolidinylmethyl)phenyl]-3-[1-(ethylsulfonyl)-4-piperidinyl]-1H-indole-7-carboxamide] | ≤ 10 µM
CCS(=O)(=O)N1CCC(c2c[nH]c3c(C(N)=O)cc(-c4csc(CN5CCCC5CC(C)C)c4)cc23)CC1 (stereo not shown) [Example 93, 3-[1-(ethylsulfonyl)-4-piperidinyl]-5-(5-{[2-(2-methylpropyl)-1-pyrrolidinyl]methyl}-3-thienyl)-1H-indole-7-carboxamide trifluoroacetate] | ≤ 10 µM
CCS(=O)(=O)N1CCC(c2c[nH]c3c(C(N)=O)cc(-c4ccc(N5CCNCC5)nc4)cc23)CC1 [Example 135, 3-[1-(ethylsulfonyl)-4-piperidinyl]-5-[6-(1-piperazinyl)-3-pyridinyl]-1H-indole-7-carboxamide trifluoroacetate] | ≤ 10 µM
CCC(CC)NCc1ccc(-c2cc(C(N)=O)c3[nH]cc(C4CCN(S(=O)(=O)CC)CC4)c3c2)cc1 [Example 142, 5-(4-{[(1-ethylpropyl)amino]methyl}phenyl)-3-[1-(ethylsulfonyl)-4-piperidinyl]-1H-indole-7-carboxamide] | ≤ 10 µM
CCS(=O)(=O)N1CCC(c2c[nH]c3c(C(N)=O)cc(-c4ccc(CN5CCCC5)cc4)cc23)CC1 [Example 149, 3-[1-(ethylsulfonyl)-4-piperidinyl]-5-[4-(1-pyrrolidinylmethyl)phenyl]-1H-indole-7-carboxamide trifluoroacetate] | ≤ 10 µM
CCS(=O)(=O)N1CCC(c2c[nH]c3c(C(N)=O)cc(-c4ccc(CN[C@H](C)C(C)C)s4)cc23)CC1 [Example 183, 5-[5-({[(1R)-1,2-dimethylpropyl]amino}methyl)-2-thienyl]-3-[1-(ethylsulfonyl)-4-piperidinyl]-1H-indole-7-carboxamide] | ≤ 10 µM
CCS(=O)(=O)N1CCC(c2c[nH]c3c(C(N)=O)cc(-c4ccc(CNCCC(C)(C)C)s4)cc23)CC1 [Example 199, 5-(5-{[(3,3-dimethylbutyl)amino]methyl}-2-thienyl)-3-[1-(ethylsulfonyl)-4-piperidinyl]-1H-indole-7-carboxamide] | ≤ 10 µM
CCS(=O)(=O)N1CCC(c2c[nH]c3c(C(N)=O)cc(-c4ccc(N5CCOCC5)nc4)cc23)CC1 [Example 229, 3-[1-(ethylsulfonyl)-4-piperidinyl]-5-[6-(4-morpholinyl)-3-pyridinyl]-1H-indole-7-carboxamide] | ≤ 10 µM
CCS(=O)(=O)N1CCC(c2c[nH]c3c(C(N)=O)cc(-c4cnn(CCN(C)C)c4)cc23)CC1 [Example 252, 5-{1-[2-(dimethylamino)ethyl]-1H-pyrazol-4-yl}-3-[1-(ethylsulfonyl)-4-piperidinyl]-1H-indole-7-carboxamide] | ≤ 10 µM
CCS(=O)(=O)N1CCC(c2c[nH]c3c(C(N)=O)cc(-c4ccc(OC)c(CN5CCOCC5)c4)cc23)CC1 [Example 264, 3-[1-(ethylsulfonyl)-4-piperidinyl]-5-[4-(methyloxy)-3-(4-morpholinylmethyl)phenyl]-1H-indole-7-carboxamide trifluoroacetate] | ≤ 10 µM

More lines, now with the values ahead:

IC50 | Compound
≤ 10 µM | CCS(=O)(=O)N1CCC(c2c[nH]c3c(C(N)=O)cc(-c4cccc(CN)c4)cc23)CC1 [Example 14, 5-[3-(aminomethyl)phenyl]-3-[1-(ethylsulfonyl)-4-piperidinyl]-1H-indole-7-carboxamide]
≤ 10 µM | CCNCc1ccc(-c2cc(C(N)=O)c3[nH]cc(C4CCN(S(=O)(=O)CC)CC4)c3c2)cc1 [Example 145, 5-{4-[(ethylamino)methyl]phenyl}-3-[1-(ethylsulfonyl)-4-piperidinyl]-1H-indole-7-carboxamide]
≤ 10 µM | CCS(=O)(=O)N1CCC(c2c[nH]c3c(C(N)=O)cc(-c4ccc(CN[C@@H](C)CO)cc4)cc23)CC1 [Example 150, 3-[1-(ethylsulfonyl)-4-piperidinyl]-5-[4-({[(1S)-2-hydroxy-1-methylethyl]amino}methyl)phenyl]-1H-indole-7-carboxamide trifluoroacetate]
≤ 10 µM | CCS(=O)(=O)N1CCC(c2c[nH]c3c(C(N)=O)cc(-c4ccc(CNC[C@@H](C)O)cc4)cc23)CC1 [Example 152, 3-[1-(ethylsulfonyl)-4-piperidinyl]-5-[4-({[(2R)-2-hydroxypropyl]amino}methyl)phenyl]-1H-indole-7-carboxamide trifluoroacetate]
≤ 10 µM | CCN(C)c1ccc(-c2cc(C(N)=O)c3[nH]cc(C4CCN(S(=O)(=O)CC)CC4)c3c2)cn1 [Example 225, 5-{6-[ethyl(methyl)amino]-3-pyridinyl}-3-[1-(ethylsulfonyl)-4-piperidinyl]-1H-indole-7-carboxamide trifluoroacetate]
≤ 10 µM | CCS(=O)(=O)N1CCC(c2c[nH]c3c(C(N)=O)cc(-c4ccc(N(C)C)nc4)cc23)CC1 [Example 226, 5-[6-(dimethylamino)-3-pyridinyl]-3-[1-(ethylsulfonyl)-4-piperidinyl]-1H-indole-7-carboxamide trifluoroacetate]
≤ 10 µM | CCS(=O)(=O)N1CCC(c2c[nH]c3c(C(N)=O)cc(-c4ccc(NC(C)C)nc4)cc23)CC1 [Example 228, 3-[1-(ethylsulfonyl)-4-piperidinyl]-5-{6-[(1-methylethyl)amino]-3-pyridinyl}-1H-indole-7-carboxamide trifluoroacetate]
≤ 10 µM | CCS(=O)(=O)N1CCC(c2c[nH]c3c(C(N)=O)cc(-c4ccc(OC)c(CN(C)C)c4)cc23)CC1 [Example 263, 5-[3-[(dimethylamino)methyl]-4-(methyloxy)phenyl]-3-[1-(ethylsulfonyl)-4-piperidinyl]-1H-indole-7-carboxamide trifluoroacetate]
≤ 10 µM | CCS(=O)(=O)N1CCC(c2c[nH]c3c(C(N)=O)cc(-c4ccc(OC)c(CNC(C)C)c4)cc23)CC1 [Example 265, 3-[1-(ethylsulfonyl)-4-piperidinyl]-5-[3-{[(1-methylethyl)amino]methyl}-4-(methyloxy)phenyl]-1H-indole-7-carboxamide trifluoroacetate]
